A word on the Ki: it is the equilibrium dissociation constant of an inhibitor or competing ligand from its target.

The target in one experiment is T1, rat-DOR (Rattus norvegicus, UniProt P33533).
T1 construct: expressed in transfected cells
The experiment in a line: Radioligand competition binding, [3H]-DPN, HEK293 membranes, DOR. As to conditions: [3H]-DPN displacement; means ± SEM of three experiments in duplicate; read-out: Ki (μM) ± SEM DOR. The procedure:
(§1) All synthesized compounds were tested in vitro by radioligand competition binding using [^3H]-diprenorphine ([^3H]-DPN) to measure the affinity for opioid receptor subtypes in membranes from HEK293 cells stably expressing either MOR, DOR, or KOR, as previously described.
(§2) Confluent monolayers of HEK293 (human embryonic kidney 293) cells stably expressing rat-MOR, rat-DOR, or human-KOR were harvested, collected by centrifugation at 1500 rpm for 5 min, and washed once with phosphate-buffered saline (PBS) at pH 7.5. Membranes from cell pellets were carried out as described by Georgoussi and Zioudrou (1993) and Papakonstantinou et al. (2015). Briefly, cell pellets were resuspended in ice-cold membrane buffer (10 mM Tris-HCl, pH 7.5 and 0.1 mM EDTA), homogenized, and centrifuged at 2,000 g for 3 min at 4 °C. Supernatants were further centrifuged at 45,000 rpm for 30 min at 4 °C. The membrane pellet was resuspended in ice-cold membrane buffer at a protein concentration of approximately 1 mg/mL and stored in aliquots at −70 °C. Protein concentration was determined according to Bradford assay.
(§3) In the experiments designed to define compound affinity and selectivity for MOR, DOR, and KOR, membranes expressing each of these opioid receptors ([…]) were incubated at 30 °C for 45 min in buffer containing 50 mM Tris-HCl, pH 7.5, 100 mM NaCl, and 10 mM MgCl2 as described by Georgoussi et al. […] The ability of compounds 10–16 to displace [^3H]-DPN (3.75 nM) binding to the opioid receptors was assessed as described by Morou And Georgoussi (2005). Non-specific binding was measured in the presence of […] Naloxone. The reaction was stopped by rapid filtration and three washes in ice-cold 50 mM Tris-HCl, pH 7.4, through GF/C filters (Whatman, Maidstone, UK) using an automated cell harvester (Brandel Inc., Gaithersburg, MD, USA). The radioactivity was measured by liquid scintillation counting (Liquid Scintillation Analyzer, Packard).
(§4) Analysis of the binding data was performed using the Origin 7.5 software (OriginLab Corporation, Northampton, MA, USA). In calcium mobilization experiments, data were analyzed by non-linear curve fitting equation, using GraphPad 5.0 software. […] Ligand efficacy was expressed as intrinsic activity (α), calculated as the ratio between the Emax of the ligand and that of the respective standards. Calcium mobilization data were expressed as FIU (fluorescence intensity units) in percent, over the baseline. Agonist potencies are given as pEC50 (the negative logarithm to base 10 of the molar concentration of an agonist that produces 50% of the maximal possible effect, Emax). Concentration response curves to agonists were fitted with the following equation: Effect = baseline + (Emax − baseline)/(1+10^(LogEC50 − X) ∗ HillSlope) where X is the agonist concentration.

The subject of experiment [1] is cells expressing the GαqG66Di5 chimeric protein, but not DOR. As to the kind of experiment: Calcium mobilization in cells expressing the GαqG66Di5 chimeric protein, but not DOR. The experiment is classed as cell-based. As to conditions: up to 10 μM; data not shown. The source says: The LP1 functional profile at DOR, previously in vitro detected by adenylyl cyclase, and the [^35S]GTPγS binding assays was controversial. […] Similar findings with DOR spontaneous activity and effects of DOR antagonists have been previously described. This effect was reversed at higher LP1 concentrations. These [^35S]GTPγS binding results reveal the role of LP1 as a DOR antagonist ligand. […] The DOR antagonist profile of LP1 was also detected in vivo by rat tail flick test. […] The remaining LP1 derivatives 11–16 were not able to stimulate calcium mobilization in CHO^DOR cells stably expressing the GαqG66Di5 protein. […]
CHO cells, expressing human opioid receptors and the Gαqi5 protein, and CHODOR, expressing the GαqG66Di5 protein, were maintained in culture medium consisting of Dulbecco minimum essential medium (DMEM) and Ham F-12 (1:1) (50/50) supplemented with 10% fetal calf serum (FCS), L-glutamine (2 mM), geneticin (200 μg/mL; G418), hygromycin B (100 μg/mL) at 37 °C in 5% CO2 humidified air. […] After placing both plates (cell culture and compound plate) into the FlexStation II (Molecular Device, Union City, San Jose, CA 94587, USA), fluorescence changes were measured at room temperature. […] Maximum change in fluorescence, expressed in percent of baseline fluorescence, was used to determine agonist response.
For orientation: A change in cytosolic calcium serves as a functional read-out for many receptors and channels.

For a further experiment, the target named is human-KOR (Homo sapiens, UniProt P41145). The experiment in a line: Radioligand competition binding, [3H]-DPN, HEK293 membranes, KOR. Further details: expressed in transfected cells. As to conditions: [3H]-DPN displacement; means ± SEM of three experiments in duplicate; read-out: Ki (μM) ± SEM KOR. The procedure: as §1, §2, §3, §4

The structures appear in SMILES notation.

Turning to `C[C@H]1[C@H]2Cc3ccc(O)cc3[C@]1(C)CCN2CCC(=O)Nc1ccccc1` [LP1, 3-[(2R,6R,11R)-8-hydroxy-6,11-dimethyl-1,4,5,6-tetrahydro-2,6-methano-3-benzazocin-3(2H)-yl]-N-phenylpropanamide, reference compound], the results for the Ki at rat-DOR and at human-KOR were 0.033 ± 0.02 µM and 7.5 ± 0.015 µM, respectively. In addition, in experiment [1], the “calcium mobilization in cells without DOR” value is “completely inactive”.

These data come from paper PMC6027146, “Synthesis and Structure-Activity Relationships of (−)-cis-N-Normetazocine-Based LP1 Derivatives” (Pharmaceuticals, 2018).
